System: Phospholipase A2 (Naja naja venom , Sigma)
Test: Inhibition of phospholipase A2 activity (release of 14C-arachidonic acid from phosphatidylcholine substrate)
Format: biochemical
Conditions: at 20µM; mean ± standard deviation of triplicate samples; 37°C, pH 8.7, CaCl2 4mM
Protocol: Method For The Measurement of Inhibition of Phospholipase A2 Activity
Enzyme: Phospholipase A2 (Naja naja venom , Sigma)
Substrate: Diarachidoyl phosphatidylcholine (10.6mg) and α-1-palmitayl-2-[1-^14C]-arachidonyl phosphatidylcholine (0.5pCi; 52.9nCi/mMol) in 28ml of TrisHCl buffer = […], pH 8.7) ultrasonicated.
Assay: Incubations containing PLA2 (0.125ng) in Tris HC1 buffer (100mM, pH 8.7) and CaCl2 (4mM) were prepared on ice. Immediately prior to incubation at 37°C 5µl of DMSO or compound in DMSO were added. The final assay volume was 1.75ml. After 10 minutes incubation at 37°C 750pl of substrate was added, with mixing, and the incubation continued for a further 15 min. The reaction is terminated by placing on ice and adding 5m1 CHCl3:MeOH (2:1v/v).
The lower organic phase is remaved ahd stored under N2 at -20°C until analysed. Analysis is by 1-dimensional t.l.c. on polygram Sil G sheets in the solvent system: petroleum ether: diethyl ether: acetic acid (60:40:1, v/v). In this solvent system the phospholipid remains at the origin and the arachidonic acid has an approximate Rf. value of 0.36. The areas of interest are cut from the plates and their radioactivity determined by liquid scintillation counting.
All compounds are tested in triplicate.
Calculation: The radioactivity of the arachidonic acid is expressed as a percentage of the total dpm cut from the plate. The percentage inhibition of arachidonic acid release compared to that of the control is calculated after correction for the level of spontaneous release where: • x = % corrected mean arachidonic acid release in control • y = % corrected arachidonic acid release after inhibition [formula]
The nean of the triplicate sanples is calculated giving z ± standard deviation %.

Molecule | Percent inhibition of phospholipase A2 at x µM concentration. [at 20µM %]
6-(2-(1-Octynyl)pheny]-E-hex-5-en-1-oic acid [Example 2] | 76.2± 13.9
6-[2-(1-Octynyl)phenyl)hex-5-yn-1-oic acid [Example 23] | 25.0± 19.0
CCCCCC/C=C\c1ccccc1/C=C/CCCC(=O)O [Example 3, 6-[2-(Z-1-Octenyl)phenyl]-E-hex-5-en-1-oic acid] | 72.9± 10.3
CCCCCCC#Cc1cccc(/C=C/CCCC(=O)O)c1 [Example 5, 6-[3-(1-Octynyl)phenyl]-E-hex-5-en-1-oic acid] | 78.9± 4.7
CCCCCCC#Cc1ccccc1C#CCCC(C(=O)O)C(=O)O [Example 13, 2-(4-[2-(1-octynyl)phenyl]-but-3-ynyl)malonic acid.] | 23.1± 17.6
CCCCCC/C=C\c1ccccc1/C=C\CCC(C(=O)O)C(=O)O [Example 15, 2-(4-[2-(Z)-1-Octenyl)phenyl-(Z)-but-3-enyl)malonic acid] | 65.0± 17.0
CCCCCCC#Cc1ccccc1C#CCCC(C(=O)O)C(=O)OC(C)(C)C (centres unmarked) [Example 21, 2-(4-[2-(1-Octynyl)phenyl]-but-3-ynyl)malonic acid monotertbutyl ester] | 62.0± 4.4
CCCCCC/C=C\c1ccccc1/C=C\CCCC(=O)O [Example 25, 6-[2-((Z)-1-octenyl)phenyl]-(Z)-hex-5-en-1-oic acid] | 69.8± 8.3
